Consider 19 compounds from patent publication US12454529B2, “Piperazine cyclic ureas” (SIRONAX LTD., priority 2020, dated 2025).

Where two headings read alike, the source gives them in different places.

This experiment has as its system HT-29 cells. The experiment in a line: HT-29 cell necrosis/necroptosis inhibition (TNF-α + SMAC mimetic + zVAD-FMK; CellTiter-Glo cell viability). It counts as cell-based. The settings on record: Homo sapiens, HT-29 cells, TNF-α 10 ng/ml + SMAC mimetic 6 μM + zVAD-FMK 10 μM, 20 hours, geometric mean, 10 points in duplicate. Summed up:
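Necroptosis was driven by TNF-α 10 ng/ml plus SMAC mimetic 6 μM and zVAD-FMK 10 μM in serum-free medium, with compounds as a 10-point threefold titration. After 20 h at 37 °C, ATP-based luminescence was read; EC50 values are geometric means of duplicate curves.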

The mark [1] stands for this setting: read-out: EC50 (Cell activity; Necrosis/Necroptosis Inhibitory Activity, Compounds 1-142).
The mark [2] stands for this setting: read-out: EC50 (Cell activity; Necrosis/Necroptosis Inhibitory Activity, Compounds 143-323).

Consider `Cc1nn(CC2CCCCO2)c(C)c1-c1nc(N2CCN(C(=O)N3N=CC[C@H]3c3cc(F)cc(C#N)c3)CC2)ncc1F` (stereo partly shown) [Compound 137, 3-((58)-1-(4-(4-(3,5-dimethyl-1-((tetrahydro-2H-pyran-2-yl)methyl)-1H-pyrazol-4-yl)-5-fluoropyrimidin-2-yl)piperazine-1-carbonyl)-4,5-dihydro-1H-pyrazol-5-yl)-5-fluorobenzonitrile], for which, under setting [1], the EC50 lay within 0.1 to 100 nM. Still for that read-out and setting: the same measure for `COc1nc(OC)c(-c2nc(N3CCN(C(=O)N4N=CC[C@H]4c4cc(F)cc(F)c4)CC3)ncc2F)c(OC)n1` [Compound 49, (S)-(5-(3,5-difluorophenyl)-4,5-dihydro-1H-pyrazol-1-yl)(4-(5-fluoro-2′,4′,6′-trimethoxy-[4,5′-bipyrimidin]-2-yl)piperazin-1-yl)methanone]: 0.1 to 100 nM. Take `Cc1nnc(-c2nc(N3CCN(C(=O)N4N=CCC4c4ncccc4Cl)CC3)ncc2F)s1` (stereo not shown) [Compound 210]: the EC50 under setting [2] lay within 0.1 to 100 nM. Same read-out and setting: with `Cc1nn(-c2nc(N3CCN(C(=O)N4N=CC[C@H]4c4cc(F)cc(C#N)c4)CC3)ncc2F)c(C)c1C(N)=O` [Compound 277, (S)-1-(2-(4-(5-(3-cyano-5-fluorophenyl)-4,5-dihydro-1H-pyrazole-1-carbonyl)piperazin-1-yl)-5-fluoropyrimidin-4-yl)-3,5-dimethyl-1H-pyrazole carboxamide] the figure was 0.1 to 100 nM; with `O=C(N1CCN(c2ncc(F)c(-n3nccc3C(F)(F)F)n2)CC1)N1N=CC[C@H]1c1cccc(F)c1` [Compound 302, (S)-(4-(5-fluoro-4-(5-(trifluoromethyl)-1H-pyrazol-1-yl)pyrimidin-2-yl)piperazin-1-yl)(5-(3-fluorophenyl)-4,5-dihydro-1H-pyrazol-1-yl)methanone], 0.1 to 100 nM. Consider `Cn1ncc(-c2nc(N3CCN(C(=O)N4N=CC[C@H]4c4cc(F)cc(C#N)c4)CC3)ncc2F)n1` [Compound 42], for which the EC50 under setting [1] lay in the range of 0.1 to 100 nM. As to `Cc1ncc(C2CC=NN2C(=O)N2CCN(c3nc(-c4c(C)cnn4C)ccc3F)CC2)s1` (stereo not shown) [Compound 270, (4-(6-(1,4-dimethyl-1H-pyrazol-5-yl)-3-fluoropyridin-2-yl)piperazin-1-yl)(5-(2-methylthiazol-5-yl)-4,5-dihydro-1H-pyrazol-1-yl)methanone], the EC50 under setting [2] lay within 0.1 to 100 nM.

Take `Cc1csc(C2CC=NN2C(=O)N2CCN(c3ncc(F)c(-n4nc(C)nc4C)n3)CC2)n1` (stereo not shown) [Compound 215]: under setting [2], the EC50 is 0.1 to 100 nM. Take `Cc1nc(C)n(-c2cc(N3CCN(C(=O)N4N=CC[C@H]4c4cc(F)cc(C#N)c4)CC3)c(F)cn2)n1` [Compound 272, (S)-3-(1-(4-(2-(3,5-dimethyl-1H-1,2,4-triazol-1-yl)-5-fluoropyridin-4-yl)piperazine-1-carbonyl)-4,5-dihydro-1H-pyrazol-5-yl)-5-fluorobenzonitrile]: the EC50 under setting [2] fell in the range of 0.1 to 100 nM. As to `CCOC(=O)c1nc(C)n(-c2nc(N3CCN(C(=O)N4N=CC[C@H]4c4cc(F)cc(C#N)c4)CC3)ncc2F)n1` [Compound 129, ethyl (S)-1-(2-(4-(5-(3-cyano-5-fluorophenyl)-4,5-dihydro-1H-pyrazole-1-carbonyl)piperazin-1-yl)-5-fluoropyrimidin-4-yl)-5-methyl-1H-1,2,4-triazole-3-carboxylate], under setting [1], the EC50 was in the range of 0.1 to 100 nM. For `Cc1nc(C)n(-c2nc(N3CCN(C(=O)N4N=CCC4c4ncccc4Cl)CC3)ncc2F)n1` (stereo not shown) [Compound 189, (5-(3-chloropyridin-2-yl)-4,5-dihydro-1H-pyrazol-1-yl)(4-(4-(3,5-dimethyl-1H-1,2,4-triazol-1-yl)-5-fluoropyrimidin-2-yl)piperazin-1-yl)methanone], under setting [2], the EC50 lay within 0.1 to 100 nM. As to `CCn1c(C)nn(-c2nc(N3CCN(C(=O)N4N=CC[C@H]4c4cc(F)cc(C#N)c4)CC3)ncc2F)c1=O` [Compound 97, (S)-3-(1-(4-(4-(4-ethyl-3-methyl-5-oxo-4,5-dihydro-1H-1,2,4-triazol-1-yl)-5-fluoropyrimidin-2-yl)piperazine-1-carbonyl)-4,5-dihydro-1H-pyrazol-5-yl)-5-fluorobenzonitrile], under setting [1], the EC50 was in the range of 0.1 to 100 nM. As for `Cc1cnn(C)c1-c1cc(N2CCN(C(=O)N3N=CCC3c3nccs3)CC2)c(F)cn1` (stereo not shown) [Compound 294, (4-(2-(1,4-dimethyl-1H-pyrazol-5-yl)-5-fluoropyridin-4-yl)piperazin-1-yl)(5-(thiazol-2-yl)-4,5-dihydro-1H-pyrazol-1-yl)methanone], the EC50 under setting [2] is 100 to 1000 nM. In the case of `Cc1nn(-c2nc(N3CCN(C(=O)N4N=CC[C@H]4c4cc(F)cc(F)c4)CC3)ncc2F)c(=O)n1C` [Compound 95, (S)-2-(2-(4-(5-(3,5-difluorophenyl)-4,5-dihydro-1H-pyrazole-1-carbonyl)piperazin-1-yl)-5-fluoropyrimidin-4-yl)-4,5-dimethyl-2,4-dihydro-3H-1,2,4-triazol-3-one], the EC50 under setting [1] is 0.1 to 100 nM. On the same count and under the same terms, the same measure for `Cc1n[nH]c(C)c1-c1nc(N2CCN(C(=O)N3N=CC[C@H]3c3cc(F)cc(C#N)c3)CC2)ncc1F` [Compound 94, (S)-3-(1-(4-(4-(3,5-dimethyl-1H-pyrazol-4-yl)-5-fluoropyrimidin-2-yl)piperazine-1-carbonyl)-4,5-dihydro-1H-pyrazol-5-yl)-5-fluorobenzonitrile]: 0.1 to 100 nM.

`Cc1n[nH]cc1-c1nc(N2CCN(C(=O)N3N=CC[C@H]3c3cc(F)cc(F)c3)CC2)ncc1F` [Compound 13, (S)-(5-(3,5-difluorophenyl)-4,5-dihydro-1H-pyrazol-1-yl)(4-(5-fluoro-4-(3-methyl-1H-pyrazol-4-yl)pyrimidin-2-yl)piperazin-1-yl)methanone]: under setting [1], the EC50 was in the range of 0.1 to 100 nM. As for `Cc1nc(C)n(-c2ccnc(N3CCN(C(=O)N4N=CC[C@H]4c4cc(F)cc(C#N)c4)CC3)n2)n1` [Compound 243, (S)-3-(1-(4-(4-(3,5-dimethyl-1H-1,2,4-triazol-1-yl)pyrimidin-2-yl)piperazine-1-carbonyl)-4,5-dihydro-1H-pyrazol-5-yl)-5-fluorobenzonitrile], under setting [2], the EC50 fell in the range of 0.1 to 100 nM.

For the compound `Cc1nc(C)n(-c2nc(N3CCN(C(=O)N4N=CC[C@@H]4c4cc(F)cc(F)c4F)CC3)ncc2F)n1` [Compound 265, (R)-(4-(4-(3,5-dimethyl-1H-1,2,4-triazol-1-yl)-5-fluoropyrimidin-2-yl)piperazin-1-yl)(5-(2,3,5-trifluorophenyl)-4,5-dihydro-1H-pyrazol-1-yl)methanone], the EC50 under setting [2] was 100 to 1000 nM. With `Cn1nncc1-c1nc(N2CCN(C(=O)N3N=CC[C@H]3c3cc(F)cc(C#N)c3)CC2)ncc1F` [Compound 41], the EC50 under setting [1] lay within 0.1 to 100 nM.
